Data taken from patent US10010539B2, “Pyrazole, triazole and tetrazole orexin receptor antagonists” (MERCK SHARP & DOHME CORP., priority 2014, dated 2018).

What was measured:
human orexin-2 receptor = human orexin-2 receptor (Homo sapiens (Human), UniProt O43614); assay: FLIPR Ca2+ Flux Assay, orexin-2 receptor (hOX2R FLIPR); format: cell-based; conditions: CHO cells expressing the human orexin-2 receptor; agonist 70 pM Ala-6,12 human orexin-A
Method: (§1) The utility of the compounds in accordance with the present invention as orexin receptor OX1R and/or OX2R antagonists may be readily determined without undue experimentation by methodology well known in the art, including the “FLIPR Ca^2+ Flux Assay” (Okumura et al., Biochem. Biophys. Res. Comm. 280:976-981, 2001). In a typical experiment the OX1 and OX2 receptor antagonistic activity of the compounds of the present invention was determined in accordance with the following experimental method. For intracellular calcium measurements, Chinese hamster ovary (CHO) cells expressing the rat orexin-1 receptor or the human orexin-2 receptor, are grown in Iscove's modified DMEM containing 2 mM L-glutamine, […], 1% hypoxanthine-thymidine supplement, 100 U/ml penicillin, 100 μg/ml streptomycin and 10% heat-inactivated fetal calf serum (FCS). The cells are seeded at 20,000 cells/well into Becton-Dickinson black 384-well clear bottom sterile plates coated with poly-D-lysine. All reagents were from GIBCO-Invitrogen Corp. The seeded plates are incubated overnight at 37° C. and 5% CO2. Ala-6,12 human orexin-A as the agonist is prepared as a 1 mM stock solution in 1% bovine serum albumin (BSA) and diluted in assay buffer (HBSS containing 20 mM HEPES, 0.1% BSA and 2.5 mM probenecid, pH7.4) for use in the assay at a final concentration of 70 pM. Test compounds are prepared as 10 mM stock solution in DMSO, then diluted in 384-well plates, first in DMSO, then assay buffer. On the day of the assay, cells are washed 3 times with 100 μl assay buffer and then incubated for 60 min (37° C., 5% CO2) in 60 μl assay buffer containing 1 μM Fluo-4AM ester, 0.02% pluronic acid, and 1% BSA. The dye loading solution is then aspirated and cells are washed 3 times with 100 μl assay buffer. 30 μl of that same buffer is left in each well. Within the Fluorescent Imaging Plate Reader (FLIPR, Molecular Devices), test compounds are added to the plate in a volume of 25 μl, incubated for 5 min and finally 25 μl of agonist is added. Fluorescence is measured for each well at 1 second intervals for 5 minutes and the height of each fluorescence peak is compared to the height of the fluorescence peak induced by 70 pM Ala-6,12 orexin-A with buffer in place of antagonist. For each antagonist, IC50 value (the concentration of compound needed to inhibit 50% of the agonist response) is determined. Alternatively, compound potency can be assessed by a radioligand binding assay (described in Bergman et. al. Bioorg. Med. Chem. Lett. 2008, 18, 1425-1430) in which the inhibition constant (Ki) is determined in membranes prepared from CHO cells expressing either the OX1 or OX2 receptor. The intrinsic orexin receptor antagonist activity of a compound which may be used in the present invention may be determined by these assays.

[1] = biological target: hOXIR (orexin-1 receptor) (Homo sapiens, UniProt O43613); assay: FLIPR Ca2+ Flux Assay, orexin-1 receptor (hOXIR FLIPR); format: cell-based; conditions: CHO cells expressing the orexin-1 receptor (method text: rat; table head: hOXIR); agonist 70 pM Ala-6,12 human orexin-A
Method: as §1

Chain of human orexin-2 receptor (O43614 whole entry): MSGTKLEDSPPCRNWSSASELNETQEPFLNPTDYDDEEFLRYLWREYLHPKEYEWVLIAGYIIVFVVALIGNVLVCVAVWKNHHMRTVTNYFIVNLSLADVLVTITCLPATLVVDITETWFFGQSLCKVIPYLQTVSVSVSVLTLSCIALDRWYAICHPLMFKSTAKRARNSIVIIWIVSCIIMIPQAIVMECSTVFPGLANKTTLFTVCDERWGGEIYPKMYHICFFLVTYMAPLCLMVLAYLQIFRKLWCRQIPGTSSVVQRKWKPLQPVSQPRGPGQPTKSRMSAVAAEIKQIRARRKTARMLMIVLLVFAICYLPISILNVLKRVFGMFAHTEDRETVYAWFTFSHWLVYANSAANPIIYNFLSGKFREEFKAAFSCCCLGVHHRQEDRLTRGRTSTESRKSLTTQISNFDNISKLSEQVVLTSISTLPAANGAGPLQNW

Cc1nc(-c2c(F)cccc2C(=O)N2C[C@H](n3ncc(C(C)(C)O)n3)CC[C@H]2C)no1 [Example 37, 2-{2-[(3R,6R)-1-{[3-fluoro-2-(5-methyl-1,2,4-oxadiazol-3-yl)phenyl]carbonyl}-6-methylpiperidin-3-yl]-2H-1,2,3-triazol-4-yl}propan-2-ol]
IC50 (human orexin-2 receptor): 0.0752 µM
IC50 [1]: > 10 µM

C[C@@H]1CC[C@@H](n2ncc(C(C)(C)O)n2)CN1C(=O)c1cc(F)ccc1-n1nccn1 [Example 38, 2-{2-[(3R,6R)-1-{[5-fluoro-2-(2H-1,2,3-triazol-2-yl)phenyl]carbonyl}-6-methylpiperidin-3-yl]-2H-1,2,3-triazol-4-yl}propan-2-ol]
IC50 (human orexin-2 receptor): 0.0275 µM
IC50 [1]: > 10 µM

C[C@@H]1CC[C@@H](n2ncc(C(C)(C)O)n2)CN1C(=O)c1ccc(F)cc1-n1nccn1 [Example 39, 2-{2-[(3R,6R)-1-{[4-fluoro-2-(2H-1,2,3-triazol-2-yl)phenyl]carbonyl}-6-methylpiperidin-3-yl]-2H-1,2,3-triazol-4-yl}propan-2-ol]
IC50 (human orexin-2 receptor): 0.0271 µM
IC50 [1]: > 10 µM

Cc1nc(-c2cc(F)ccc2C(=O)N2C[C@H](n3ncc(C(C)(C)O)n3)CC[C@H]2C)no1 [Example 40, 2-{2-[(3R,6R)-1-{[4-fluoro-2-(5-methyl-1,2,4-oxadiazol-3-yl)phenyl]carbonyl}-6-methylpiperidin-3-yl]-2H-1,2,3-triazol-4-yl}propan-2-ol]
IC50 (human orexin-2 receptor): 0.0867 µM
IC50 [1]: > 10 µM

Cc1noc(-c2cc(F)ccc2C(=O)N2C[C@H](n3ncc(C(C)(C)O)n3)CC[C@H]2C)n1 [Example 41, 2-{2-[(3R,6R)-1-{[4-fluoro-2-(3-methyl-1,2,4-oxadiazol-5-yl)phenyl]carbonyl}-6-methylpiperidin-3-yl]-2H-1,2,3-triazol-4-yl}propan-2-ol]
IC50 (human orexin-2 receptor): 0.173 µM
IC50 [1]: > 10 µM

C[C@@H]1CC[C@@H](n2ncc(C(C)(C)O)n2)CN1C(=O)c1nccnc1-c1ccccn1 [Example 42, 2-(2-{(3R,6R)-6-methyl-1-[(3-pyridin-2-ylpyrazin-2-yl)carbonyl]piperidin-3-yl}-2H-1,2,3-triazol-4-yl)propan-2-ol]
IC50 (human orexin-2 receptor): 0.622 µM
IC50 [1]: > 10 µM

C[C@@H]1CC[C@@H](n2ncc(C(C)(C)O)n2)CN1C(=O)c1nccnc1-n1cccn1 [Example 43, 2-{2-[(3R,6R)-6-methyl-1-{[3-(1H-pyrazol-1-yl)pyrazin-2-yl]carbonyl}piperidin-3-yl]-2H-1,2,3-triazol-4-yl}propan-2-ol]
IC50 (human orexin-2 receptor): 0.109 µM
IC50 [1]: > 10 µM

COCCc1ccccc1C(=O)N1C[C@H](n2ncc(C(C)(C)O)n2)CC[C@H]1C [Example 44, 2-{2-[(3R,6R)-1-{[2-(2-methoxyethyl)phenyl]carbonyl}-6-methylpiperidin-3-yl]-2H-1,2,3-triazol-4-yl}propan-2-ol]
IC50 (human orexin-2 receptor): 0.897 µM
IC50 [1]: > 10 µM

COc1ccc(C(=O)N2C[C@H](n3ncc(C(C)(C)O)n3)CC[C@H]2C)c(-n2nccn2)n1 [Example 45, 2-{2-[(3R,6R)-1-{[6-methoxy-2-(2H-1,2,3-triazol-2-yl)pyridin-3-yl]carbonyl}-6-methylpiperidin-3-yl]-2H-1,2,3-triazol-4-yl}propan-2-ol]
IC50 (human orexin-2 receptor): 0.0514 µM
IC50 [1]: > 10 µM

Cc1cccc(C(=O)N2C[C@H](n3ncc(C(C)(C)O)n3)CC[C@H]2C)c1-n1nccn1 [Example 46]
IC50 (human orexin-2 receptor): 0.0564 µM
IC50 [1]: > 10 µM

Cc1nc(-c2ccccc2C(=O)N2C[C@H](n3ncc(C(C)(C)O)n3)CC[C@H]2C)no1 [Example 47, 2-{2-[(3R,6R)-6-methyl-1-{[2-(5-methyl-1,2,4-oxadiazol-3-yl)phenyl]carbonyl}piperidin-3-yl]-2H-1,2,3-triazol-4-yl}propan-2-ol]
IC50 (human orexin-2 receptor): 0.0457 µM
IC50 [1]: > 10 µM

Cc1noc(-c2c(F)cccc2C(=O)N2C[C@H](n3ncc(C(C)(C)O)n3)CC[C@H]2C)n1 [Example 48, 2-{2-[(3R,6R)-1-{[3-fluoro-2-(3-methyl-1,2,4-oxadiazol-5-yl)phenyl]carbonyl}-6-methylpiperidin-3-yl]-2H-1,2,3-triazol-4-yl}propan-2-ol]
IC50 (human orexin-2 receptor): 0.137 µM
IC50 [1]: > 10 µM
